Columns and labels:
[1] = system: HCC827 cells (EGFR Exon19 del, non-small cell lung cancer cells); assay: Cell viability assay (WST/CCK8), HCC827 cells; type: cell-based; conditions: Homo sapiens, HCC827, 72 h, HCC827 (Exon19 Del), 72 hours, WST (CCK8); read-out: IC50 (half inhibitory concentration)
Summary of the method: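 Cells seeded at 3 000/well in RPMI1640 complete medium, dosed next day with compounds (top 10 μM, 3-fold, 10 points) for 72 h. Viability read with WST (CCK8) reagent; DMSO as negative control, EGFR TKIs as positive controls; IC50 determined.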

[2] = system: PC9 cells (EGFR Exon 19 del, non-small cell lung cancer cells); assay: Cell viability assay (WST/CCK8), PC9 cells; type: cell-based; conditions: Homo sapiens, PC-9; PC9 (Exon19 Del), 72 hours, WST (CCK8); read-out: IC50 (half inhibitory concentration)
From the text: The cell lines with abnormal EGFR expression used are as follows: • HCC827 cells (EGFR Exon19 del, non-small cell lung cancer cells); • PC9 cells (EGFR Exon 19 del, non-small cell lung cancer cells); • PC9BracA1 (EGFR Exon 19 del+T790M, non-small cell lung cancer cells) • H1975 (EGFR Exon T790M+L858R mutation, non-small cell lung cancer cell line) • BT474 cells (HER2 positive breast cancer cells)
All of the half inhibitory concentrations (IC50) of these compounds of the present invention were determined with WST reagent from Fuyuan Biotec Company. The specific experiment procedures are as follows: Cancer cells were planted in 96-well-plate at the density of 3 000 cells per well with 100 μL RPMI1640 completed culture medium. In the next day, compounds with indicated concentrations were added to the cells, DMSO was used as the negative control and the EGFR TKIs were used to treat cells as the positive groups. After 72 hours drug treatment, cell viability was measured by using the WST reagent following the instructions.
The cells were treated with the gradient concentration of these compounds (the maximum concentration: 10 μM; 3-fold dilution ratio, 10 concentration gradients) for 72 hours and then incubated with the WST (CCK8) reagent to determine the cell viability.

SMILES	IC50 [1]	IC50 [2]
COc1cc2ncnc(Nc3ccc(F)c(Cl)c3)c2cc1NC(=O)/C=C/CN1CCN(C(=O)COCCOCCOCCSc2cccc3c2CN(C2CCC(=O)NC2=O)C3=O)CC1 (centres unmarked) [SIAIS262002, (E)-N-(4-((3-chloro-4-fluorophenyl)amino)-7-methoxyquinazolin-6-yl)-4-(4-(2-(2-(2-(2-((2-(2,6-dioxopiperidin-3-yl)-1-oxoisoindolin-4-yl)thio)ethoxy)ethoxy)ethoxy)acetyl)piperazin-1-yl)but-2-enamide]	26.1 nM	78 nM
COc1cc2ncnc(Nc3ccc(F)c(Cl)c3)c2cc1NC(=O)/C=C/CN1CCN(C(=O)COCCOCCOCCOCCSc2cccc3c2C(=O)N(C2CCC(=O)NC2=O)C3=O)CC1 (centres unmarked) [SIAIS262007, (E)-N-(4-((3-chloro-4-fluorophenyl)amino)-7-methoxyquinazolin-6-yl)-4-(4-(14-((2-(2,6-dioxopiperidin-3-yl)-1,3-dioxoisoindolin-4-yl)thio)-3,6,9,12-tetraoxatetradecanoyl)piperazin-1-yl)but-2-enamide]	26 nM	84 nM
COc1cc2ncnc(Nc3ccc(F)c(Cl)c3)c2cc1NC(=O)/C=C/CN1CCN(C(=O)CCCCCCC(=O)N[C@H](C(=O)N2C[C@H](O)C[C@H]2C(=O)NCc2ccc(-c3scnc3C)cc2)C(C)(C)C)CC1 [SIAIS249043, (2S,4R)-1-((S)-2-(8-(4-((E)-4-((4-((3-chloro-4-fluorophenyl)amino)-7-methoxyquinazolin-6-yl)amino)-4-oxobut-2-en-1-yl)piperazin-1-yl)-8-oxooctanamido)-3,3-dimethylbutanoyl)-4-hydroxy-N-(4-(4-methylthiazol-5-yl)benzyl)pyrrolidine-2-carboxamide]	19.3 nM	70.6 nM
COc1cc2ncnc(Nc3ccc(F)c(Cl)c3)c2cc1NC(=O)/C=C/CN1CCN(C(=O)CCCCCCSc2cccc3c2CN(C2CCC(=O)NC2=O)C3=O)CC1 (centres unmarked) [SIAIS219190, (E)-N-(4-((3-chloro-4-fluorophenyl)amino)-7-methoxyquinazolin-6-yl)-4-(4-(7-((2-(2,6-dioxopiperidin-3-yl)-1-oxoisoindolin-4-yl)thio)heptanoyl)piperazin-1-yl)but-2-enamide]	18.6 nM	7.2 nM
COc1cc2ncnc(Nc3ccc(F)c(Cl)c3)c2cc1NC(=O)/C=C/CN1CCC(N2CCN(C(=O)CCc3ccc(CCC(=O)N[C@H](C(=O)N4C[C@H](O)C[C@H]4C(=O)NCc4ccc(-c5scnc5C)cc4)C(C)(C)C)cc3)CC2)CC1 [SIAIS249106, (2S,4R)-1-((S)-2-(3-(4-(3-(4-(1-((E)-4-((4-((3-chloro-4-fluorophenyl)amino)-7-methoxyquinazolin-6-yl)amino)-4-oxobut-2-en-1-yl)piperidin-4-yl)piperazin-1-yl)-3-oxopropyl)phenyl)propanamido)-3,3-dimethylbutanoyl)-4-hydroxy-N-(4-(4-methylthiazol-5-yl)benzyl)pyrrolidine-2-carboxamide]	16.2 nM	50.1 nM
COc1cc2ncnc(Nc3ccc(F)c(Cl)c3)c2cc1NC(=O)/C=C/CN1CCC(NC(=O)CCOCCOCCNc2cccc3c2C(=O)N(C2CCC(=O)NC2=O)C3=O)CC1 (centres unmarked) [SIAIS249086, (E)-N-(4-((3-chloro-4-fluorophenyl)amino)-7-methoxyquinazolin-6-yl)-4-(4-(3-(2-(2-((2-(2,6-dioxopiperidin-3-yl)-1,3-dioxoisoindolin-4-yl)amino)ethoxy)ethoxy)propanamido)piperidin-1-yl)but-2-enamide]	17 nM	34.2 nM
COc1cc2ncnc(Nc3ccc(F)c(Cl)c3)c2cc1NC(=O)/C=C/CN1CCN(C(=O)COCCSc2cccc3c2C(=O)N(C2CCC(=O)NC2=O)C3=O)CC1 (centres unmarked) [SIAIS219192, (E)-N-(4-((3-chloro-4-fluorophenyl)amino)-7-methoxyquinazolin-6-yl)-4-(4-(2-(2-((2-(2,6-dioxopiperidin-3-yl)-1,3-dioxoisoindolin-4-yl)thio)ethoxy)acetyl)piperazin-1-yl)but-2-enamide]	16.4 nM	8.9 nM

Now those with a lower IC50 [1], led by results:

IC50 [1]	IC50 [2]	SMILES
4.6 nM	16 nM	COc1cc2ncnc(Nc3ccc(F)c(Cl)c3)c2cc1NC(=O)/C=C/CN1CCN(C(=O)CCCCCNc2cccc3c2C(=O)N(C2CCC(=O)NC2=O)C3=O)CC1 (centres unmarked) [SIAIS249049, (E)-N-(4-((3-chloro-4-fluorophenyl)amino)-7-methoxyquinazolin-6-yl)-4-(4-(6-((2-(2,6-dioxopiperidin-3-yl)-1,3-dioxoisoindolin-4-yl)amino)hexanoyl)piperazin-1-yl)but-2-enamide]
0.3 nM	0.7 nM	COc1cc2ncnc(Nc3ccc(F)c(Cl)c3)c2cc1NC(=O)/C=C/CN1CCC(N2CCN(C(=O)CCCCCCCCCSc3cccc4c3CN(C3CCC(=O)NC3=O)C4=O)CC2)CC1 (centres unmarked) [SIAIS337037, (E)-N-(4-((3-chloro-4-fluorophenyl)amino)-7-methoxyquinazolin-6-yl)-4-(4-(4-(10-((2-(2,6-dioxopiperidin-3-yl)-1-oxoisoindolin-4-yl)thio)decanoyl)piperazin-1-yl)piperidin-1-yl)but-2-enamide]
5.2 nM	18.7 nM	COc1cc2ncnc(Nc3ccc(F)c(Cl)c3)c2cc1NC(=O)/C=C/CN1CCN(C(=O)CCCCCCSc2cccc3c2C(=O)N(C2CCC(=O)NC2=O)C3=O)CC1 (centres unmarked) [SIAIS249039, (E)-N-(4-((3-chloro-4-fluorophenyl)amino)-7-methoxyquinazolin-6-yl)-4-(4-(7-((2-(2,6-dioxopiperidin-3-yl)-1,3-dioxoisoindolin-4-yl)thio)heptanoyl)piperazin-1-yl)but-2-enamide]
3.1 nM	185 nM	COc1cc2ncnc(Nc3ccc(F)c(Cl)c3)c2cc1NC(=O)/C=C/CN1CCC(N2CCN(CCCCCCSc3cccc4c3CN(C3CCC(=O)NC3=O)C4=O)CC2)CC1 (centres unmarked) [SIAIS262065, (E)-N-(4-((3-chloro-4-fluorophenyl)amino)-7-methoxyquinazolin-6-yl)-4-(4-(4-(6-((2-(2,6-dioxopiperidin-3-yl)-1-oxoisoindolin-4-yl)thio)hexyl)piperazin-1-yl)piperidin-1-yl)but-2-enamide]
15.7 nM	23.3 nM	COc1cc2ncnc(Nc3ccc(F)c(Cl)c3)c2cc1NC(=O)/C=C/CN1CCN(C(=O)CSc2cccc3c2CN(C2CCC(=O)NC2=O)C3=O)CC1 (centres unmarked) [SIAIS219185, (E)-N-(4-((3-chloro-4-fluorophenyl)amino)-7-methoxyquinazolin-6-yl)-4-(4-(2-((2-(2,6-dioxopiperidin-3-yl)-1-oxoisoindolin-4-yl)thio)acetyl)piperazin-1-yl)but-2-enamide]
5.5 nM	9.9 nM	COc1cc2ncnc(Nc3ccc(F)c(Cl)c3)c2cc1NC(=O)/C=C/CN1CCN(C(=O)CCCCNc2cccc3c2CN(C2CCC(=O)NC2=O)C3=O)CC1 (centres unmarked) [SIAIS249058, (E)-N-(4-((3-chloro-4-fluorophenyl)amino)-7-methoxyquinazolin-6-yl)-4-(4-(5-((2-(2,6-dioxopiperidin-3-yl)-1-oxoisoindolin-4-yl)amino)pentanoyl)piperazin-1-yl)but-2-enamide]

Source: patent US12564638B2 (SHANGHAITECH UNIVERSITY, priority 2019, dated 2026)
